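Protocol summary: plate cells (96-well), add compound at 5 concentrations, incubate 48 h, interpolate endpoints linearly. The concentration for 50% growth inhibition is given as GI50. Definition used: TGI = concentration required for complete inhibition of growth.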
Legend:
Experiment in all cases: NCI anticancer screen, dose series, 48 h
HOP-92 NSCLC = test system: HOP-92 NSCLC
MALME-3M melanoma = test system: MALME-3M melanoma
NCI-H23 lung = test system: NCI-H23 lung
NCI/ADR-RES ovarian = test system: NCI/ADR-RES ovarian
SF-295 CNS = test system: SF-295 CNS
SF-539 CNS = test system: SF-539 CNS
SK-OV-3 ovarian = test system: SK-OV-3 ovarian
SN12C renal = test system: SN12C renal
SNB-75 CNS = test system: SNB-75 CNS
SW-620 colon = test system: SW-620 colon

Work on `O=C(CCCCCCNC(=O)c1cnc(N(c2ccccc2)c2ccccc2)nc1)NO` yielded a GI50 (HOP-92 NSCLC) of 2.13 µM, a TGI (HOP-92 NSCLC) of 15.7 µM and a GI50 (MALME-3M melanoma) of 0.73 µM. It also gave a TGI (MALME-3M melanoma) of 5.03 µM, a GI50 (NCI-H23 lung) of 3.97 µM and a TGI (NCI-H23 lung) of 38.6 µM. It also gave a GI50 (NCI/ADR-RES ovarian) of 14.4 µM, a TGI (NCI/ADR-RES ovarian) greater than 96.8 µM and a GI50 (SF-295 CNS) of 2.95 µM. The TGI (SF-295 CNS) was 10.8 µM, the GI50 (SF-539 CNS) was 2.92 µM and the TGI (SF-539 CNS) was 52.3 µM. The GI50 (SK-OV-3 ovarian) was 3.25 µM, the TGI (SK-OV-3 ovarian) was 23.8 µM and the GI50 (SN12C renal) was 3.85 µM. The TGI (SN12C renal) was 62.4 µM, the GI50 (SNB-75 CNS) was 1.5 µM and the TGI (SNB-75 CNS) was greater than 51.9 µM. For the same compound, the GI50 (SW-620 colon) was 1.94 µM and the TGI (SW-620 colon) was greater than 29.7 µM.

In the case of `CCN1C(=O)N(CC)C2C1NN=c1s/c(=C\c3cccc(F)c3)c(=O)n12` (stereo not given), the GI50 (HOP-92 NSCLC) is reported as 1.44 µM, the TGI (HOP-92 NSCLC) is reported as greater than 79.8 µM and the GI50 (MALME-3M melanoma) is reported as 0.429 µM. For the same compound, the TGI (MALME-3M melanoma) was greater than 100 µM, the GI50 (NCI-H23 lung) was 0.522 µM and the TGI (NCI-H23 lung) was greater than 100 µM. For the same compound, the GI50 (NCI/ADR-RES ovarian) was 0.059 µM, the TGI (NCI/ADR-RES ovarian) was greater than 100 µM and the GI50 (SF-295 CNS) was 0.224 µM. The TGI (SF-295 CNS) was greater than 100 µM, the GI50 (SF-539 CNS) was 0.0804 µM and the TGI (SF-539 CNS) was 1.05 µM. For the same compound, the GI50 (SK-OV-3 ovarian) was 2.59 µM, the TGI (SK-OV-3 ovarian) was greater than 100 µM and the GI50 (SN12C renal) was 0.38 µM. The TGI (SN12C renal) was greater than 100 µM, the GI50 (SNB-75 CNS) was 0.0745 µM and the TGI (SNB-75 CNS) was greater than 100 µM. It also gave a GI50 (SW-620 colon) of 0.0845 µM and a TGI (SW-620 colon) greater than 100 µM.

`C/C=C(\C)C(=O)NC1=CC[C@@]2(C)C(=CCC3C2CC[C@@]2(C)C3CC[C@@H]2C(C)N(C)C)C1=O` (stereo not given in full) gave a GI50 (HOP-92 NSCLC) of 1.66 µM, a TGI (HOP-92 NSCLC) of 14.8 µM and a GI50 (MALME-3M melanoma) of 2.1 µM. The TGI (MALME-3M melanoma) was 5.34 µM, the GI50 (NCI-H23 lung) was 3.95 µM and the TGI (NCI-H23 lung) was 25.1 µM. For the same compound, the GI50 (NCI/ADR-RES ovarian) was 6.44 µM, the TGI (NCI/ADR-RES ovarian) was 42.5 µM and the GI50 (SF-295 CNS) was 2.32 µM. The TGI (SF-295 CNS) was 7.33 µM, the GI50 (SF-539 CNS) was 1.62 µM and the TGI (SF-539 CNS) was 3.22 µM. The GI50 (SK-OV-3 ovarian) was 11.6 µM, the TGI (SK-OV-3 ovarian) was 29.8 µM and the GI50 (SN12C renal) was 4.47 µM. For the same compound, the TGI (SN12C renal) was 22.3 µM, the GI50 (SNB-75 CNS) was 5.22 µM and the TGI (SNB-75 CNS) was 28.4 µM. For the same compound, the GI50 (SW-620 colon) was 2.02 µM and the TGI (SW-620 colon) was 4.91 µM.

Compound `CC(C)Cn1cnc2c(SCc3ccc(Cl)cc3Cl)nc(N)nc21` has a TGI (HOP-92 NSCLC) of 69.9 µM, a TGI (MALME-3M melanoma) of 71.6 µM and a TGI (NCI-H23 lung) greater than 100 µM. It also gave a TGI (NCI/ADR-RES ovarian) greater than 100 µM, a TGI (SF-295 CNS) greater than 100 µM and a TGI (SF-539 CNS) of 36.5 µM. The TGI (SK-OV-3 ovarian) was greater than 100 µM, the TGI (SN12C renal) was greater than 100 µM and the TGI (SNB-75 CNS) was greater than 100 µM. For the same compound, the TGI (SW-620 colon) was greater than 100 µM.

With `CCCCON(OC(=O)c1ccc2ccccc2c1)C(=O)c1ccccc1` the GI50 (HOP-92 NSCLC) was 44.8 µM, the TGI (HOP-92 NSCLC) was greater than 100 µM and the GI50 (MALME-3M melanoma) was greater than 100 µM. For the same compound, the TGI (MALME-3M melanoma) was greater than 100 µM, the GI50 (NCI-H23 lung) was 90.2 µM and the TGI (NCI-H23 lung) was greater than 100 µM. It also gave a GI50 (NCI/ADR-RES ovarian) greater than 100 µM, a TGI (NCI/ADR-RES ovarian) greater than 100 µM and a GI50 (SF-295 CNS) greater than 100 µM. For the same compound, the TGI (SF-295 CNS) was greater than 100 µM, the GI50 (SF-539 CNS) was greater than 100 µM and the TGI (SF-539 CNS) was greater than 100 µM. The GI50 (SK-OV-3 ovarian) was greater than 100 µM, the TGI (SK-OV-3 ovarian) was greater than 100 µM and the GI50 (SN12C renal) was greater than 100 µM. For the same compound, the TGI (SN12C renal) was greater than 100 µM, the GI50 (SNB-75 CNS) was 86.2 µM and the TGI (SNB-75 CNS) was greater than 100 µM. It also gave a GI50 (SW-620 colon) of 36.3 µM and a TGI (SW-620 colon) greater than 100 µM.

`CCOC(=O)Nc1ccc2c(c1)/C(=N\NC(N)=S)c1ccccc1-2` gave a GI50 (HOP-92 NSCLC) of 8.49 µM, a TGI (HOP-92 NSCLC) of 62.5 µM and a GI50 (MALME-3M melanoma) of 9.23 µM. The TGI (MALME-3M melanoma) was 33.4 µM, the GI50 (NCI-H23 lung) was 2.95 µM and the TGI (NCI-H23 lung) was 12.6 µM. It also gave a GI50 (NCI/ADR-RES ovarian) of 2.75 µM, a TGI (NCI/ADR-RES ovarian) of 9.4 µM and a GI50 (SF-295 CNS) of 2.37 µM. For the same compound, the TGI (SF-295 CNS) was 7.59 µM, the GI50 (SF-539 CNS) was 3.75 µM and the TGI (SF-539 CNS) was 17.3 µM. It also gave a GI50 (SK-OV-3 ovarian) of 11.7 µM, a TGI (SK-OV-3 ovarian) of 44.8 µM and a GI50 (SN12C renal) of 5.94 µM. For the same compound, the TGI (SN12C renal) was 65.7 µM, the GI50 (SNB-75 CNS) was 4.19 µM and the TGI (SNB-75 CNS) was 18.2 µM. The GI50 (SW-620 colon) was 5.91 µM and the TGI (SW-620 colon) was 32.6 µM.

From PubChem BioAssay (NCI)
